Measured values published in ChEMBL document CHEMBL1201862, “PubChem BioAssay data set” (2004).
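Grown in 96-well plates, cells were treated for 48 hours with each compound at five concentrations. Insufficient inhibition: endpoint recorded as highest concentration tested. GI50 = concentration required for 50% inhibition of growth.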 Activity calls are given as the source filed them. No stated cut-off is given here; in the data, active = GI50 up to about 1.1 µM and inactive = higher.

How the values were obtained:
Assay in all cases: DTP human tumour cell line panel, 48 h
UO-31 = test system: UO-31
CAKI-1 = test system: CAKI-1
NCI-H522 = test system: NCI-H522
UACC-62 = test system: UACC-62
HCT-116 = test system: HCT-116
SK-MEL-2 = test system: SK-MEL-2
COLO 205 = test system: COLO 205
OVCAR-8 = test system: OVCAR-8
HOP-18 = test system: HOP-18
HOP-92 = test system: HOP-92
K562 = test system: K562
OVCAR-3 = test system: OVCAR-3
KM12 = test system: KM12
SF-268 = test system: SF-268
XF498 = test system: XF498
SNB-78 = test system: SNB-78
NCI-H23 = test system: NCI-H23
DMS-273 = test system: DMS-273
SN12C = test system: SN12C
NCI-H226 = test system: NCI-H226
MOLT-4 = test system: MOLT-4
TK-10 = test system: TK-10
M14 = test system: M14
IGROV-1 = test system: IGROV-1
HCC 2998 = test system: HCC 2998
LXFL 529 = test system: LXFL 529
OVCAR-5 = test system: OVCAR-5
EKVX = test system: EKVX
HCT-15 = test system: HCT-15
A549 = test system: A549
HOP-62 = test system: HOP-62
SK-MEL-5 = test system: SK-MEL-5
ACHN = test system: ACHN
786-0 = test system: 786-0
RXF 631 = test system: RXF 631
SNB-75 = test system: SNB-75
M19-MEL = test system: M19-MEL
SW-620 = test system: SW-620
NCI-H460 = test system: NCI-H460
U-251 = test system: U-251
A498 = test system: A498
DMS-114 = test system: DMS-114
CCRF-CEM = test system: CCRF-CEM
LOX IMVI = test system: LOX IMVI
HL-60 = test system: HL-60
SK-MEL-28 = test system: SK-MEL-28
HT-29 = test system: HT-29
RXF 393 = test system: RXF 393
SF-295 = test system: SF-295
UACC-257 = test system: UACC-257
KM-20L2 = test system: KM-20L2
SR = test system: SR
SK-OV-3 = test system: SK-OV-3
Malme-3M = test system: Malme-3M
SF-539 = test system: SF-539
SNB-19 = test system: SNB-19
DLD-1 = test system: DLD-1
OVCAR-4 = test system: OVCAR-4
RPMI-8226 = test system: RPMI-8226

Which results are given for `N#C/C(=C\c1c(Cl)cccc1Cl)c1ccccc1`?
GI50 (UO-31): 17.7 µM (inactive); GI50 (CAKI-1): 8.47 µM (inactive); GI50 (NCI-H522): 14.2 µM (inactive); GI50 (UACC-62): 4.88 µM (inactive); GI50 (HCT-116): 4.36 µM (inactive); GI50 (SK-MEL-2): 5.78 µM (inactive); GI50 (COLO 205): 2.4 µM (inactive); GI50 (OVCAR-8): 16.4 µM (inactive); GI50 (HOP-18): > 50.1 µM (inactive); GI50 (HOP-92): 8.49 µM (inactive); GI50 (K562): 3.15 µM (inactive); GI50 (OVCAR-3): 3.8 µM (inactive); GI50 (KM12): 4.86 µM (inactive); GI50 (SF-268): 18.5 µM (inactive); GI50 (XF498): 8.13 µM (inactive); GI50 (SNB-78): 11.1 µM (inactive); GI50 (NCI-H23): 14.9 µM (inactive); GI50 (DMS-273): 3.35 µM (inactive); GI50 (SN12C): 9.82 µM (inactive); GI50 (NCI-H226): > 22.9 µM (inactive); GI50 (MOLT-4): 4.73 µM (inactive); GI50 (TK-10): 15.8 µM (inactive); GI50 (M14): 6.4 µM (inactive); GI50 (IGROV-1): 9.29 µM (inactive); GI50 (HCC 2998): > 39.2 µM (inactive); GI50 (LXFL 529): 33.7 µM (inactive); GI50 (OVCAR-5): > 77.4 µM (inactive); GI50 (EKVX): 18.3 µM (inactive); GI50 (HCT-15): 4.16 µM; GI50 (A549): 7.8 µM (inactive); GI50 (HOP-62): 3.83 µM (inactive); GI50 (SK-MEL-5): 5.51 µM (inactive); GI50 (ACHN): 7.59 µM (inactive); GI50 (786-0): 4.92 µM (inactive); GI50 (RXF 631): 7.23 µM (inactive); GI50 (SNB-75): 2.97 µM (inactive); GI50 (M19-MEL): 8.57 µM (inactive); GI50 (SW-620): 2.74 µM (inactive); GI50 (NCI-H460): 4.69 µM (inactive); GI50 (U-251): 4.39 µM (inactive); GI50 (A498): 3.13 µM (inactive); GI50 (DMS-114): 12.4 µM (inactive); GI50 (CCRF-CEM): 2.88 µM (inactive); GI50 (LOX IMVI): 18.7 µM (inactive); GI50 (HL-60): 3.6 µM (inactive); GI50 (SK-MEL-28): 6.92 µM (inactive); GI50 (HT-29): 4.19 µM (inactive); GI50 (RXF 393): 6.12 µM (inactive); GI50 (SF-295): 4.43 µM (inactive); GI50 (UACC-257): 8.65 µM (inactive); GI50 (KM-20L2): 3.85 µM (inactive); GI50 (SR): 2.63 µM (inactive); GI50 (SK-OV-3): 6.11 µM (inactive); GI50 (Malme-3M): 10.2 µM (inactive); GI50 (SF-539): 2.72 µM (inactive); GI50 (SNB-19): 3.66 µM (inactive); GI50 (DLD-1): 5.18 µM (inactive); GI50 (OVCAR-4): 20.1 µM (inactive); GI50 (RPMI-8226): 5.48 µM (inactive)
